The values below come from PubChem BioAssay AID493250 (Broad Institute, 2011).

The test addresses Zinc finger protein mex-5 (Caenorhabditis elegans) (UniProt Q9XUB2). Briefly: MEX-5 zinc finger-RNA interaction blockers – biochemical, fluorescence polarization, C. elegans, cherry-picked, round 3, dose response (AID 493250). To be noted: purified MEX-5-MBP, FITC-TCR2 RNA fluorescence polarization; for activity change, negative = inhibition: at 10 µM (top of the series). (In general: Polarisation of emitted light reports the rotation of a fluorescent probe.)

SMILES strings stand for the structures. The source made the active and inactive calls.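 Rule for the calls: active = signal decrease with fitted half-maximal dose at or below ten times the highest valid tested dose; inconclusive = poor fit, or flat fit at 30 to 70% inhibition; inactive = the rest.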 A value given as a limit tells only on which side of the number the result lay.

Sequence of Zinc finger protein mex-5 (Caenorhabditis elegans) (Q9XUB2 whole entry, looked up): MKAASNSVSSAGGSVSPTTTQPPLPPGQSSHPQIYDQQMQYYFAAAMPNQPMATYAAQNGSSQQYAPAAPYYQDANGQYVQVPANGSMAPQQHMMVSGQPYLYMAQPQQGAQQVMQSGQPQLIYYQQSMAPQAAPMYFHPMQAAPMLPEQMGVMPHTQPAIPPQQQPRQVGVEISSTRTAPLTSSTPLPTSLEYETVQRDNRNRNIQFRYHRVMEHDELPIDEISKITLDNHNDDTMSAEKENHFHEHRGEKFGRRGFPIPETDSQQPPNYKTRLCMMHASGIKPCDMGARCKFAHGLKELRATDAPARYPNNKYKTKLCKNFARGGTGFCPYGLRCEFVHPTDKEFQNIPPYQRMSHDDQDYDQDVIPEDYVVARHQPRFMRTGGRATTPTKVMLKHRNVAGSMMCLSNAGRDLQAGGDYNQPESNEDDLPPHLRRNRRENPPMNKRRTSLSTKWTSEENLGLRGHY

Turning to `Cc1nc2ccc(NC(=O)NC(=O)c3c(Cl)cccc3Cl)cc2o1`, the “activity change, negative = inhibition” value is “inactive”.

With `C=CCn1c(O)c(N=NC(=S)Nc2cccc(C)c2)c2ccccc21`, the “activity change, negative = inhibition” value is “inactive”.

Take `Nc1ccc(Cc2ccc(N)c(C(=O)O)c2)cc1C(=O)O`: the “activity change, negative = inhibition” value is “inactive”.

For `CC(=O)Nc1ccc(-c2csc(Nc3cccc(C)n3)n2)cc1`, the “activity change, negative = inhibition” value was “inactive”.

Take `O=C(N/N=C/c1c(O)n(Cc2ccco2)c(=O)[nH]c1=O)c1ccccc1`: the “activity change, negative = inhibition” value is “inactive”.

`COc1ccc(OC)c(Nc2nc(-c3ccc(O)c(O)c3)cs2)c1`: the “activity change, negative = inhibition” value was “inactive”.

For the compound `COC(=O)c1cc2c(-c3ccccc3)c(C)c3ccccn3c-2c1C(=O)OC`, the “activity change, negative = inhibition” value is “inactive”.

On to `NC1=C([N+](=O)[O-])C(c2ccc3c(c2)OCO3)C2=C(CCCC2=O)O1` (configuration not stated), for which the “activity change, negative = inhibition” value was “inactive”.

Turning to `O=C(O)c1ccc2c(c1)ncn2C1CCCCC1`, the “activity change, negative = inhibition” value is “inactive”.

For `CC(C)C(=O)OCC(=O)Nc1ccc2c(c1)CCC2`, the “activity change, negative = inhibition” value is “inactive”.

For the compound `Cc1ccc2c(c1)c1nc3ccccc3nc1n2C`, the AC50 (usually the concentration giving half of the maximal activity seen) is 6.78 µM.

For `Cc1cccc(C(=O)NNc2ncnc3c2cnn3C)c1`, the “activity change, negative = inhibition” value is “inactive”.

Take `COc1ccc(-c2cn[nH]c2-c2ccc(OCC(=O)NN)cc2O)cc1`: the “activity change, negative = inhibition” value was “inactive”.

For `COC(=O)c1ccc(-c2ccc(C(c3c(C)[nH][nH]c3=O)c3c(C)[nH][nH]c3=O)o2)cc1`, the “activity change, negative = inhibition” value was “inactive”.

For `COc1ccccc1N=Nc1c(C)[nH][nH]c1=O`, the “activity change, negative = inhibition” value was “inactive”.

Consider `C#CCOCCOCCOCCNc1nc(N2CCN(C(=O)[C@H](CCCCN)n3cc(C(N)CO)nn3)CC2)nc(N2CCN(C(=O)[C@H](CCC(=O)O)n3cc(C(N)CC(C)C)nn3)CC2)n1` (some centres not stated), for which the “activity change, negative = inhibition” value is “inactive”.

Take `COc1ccc(OC)c(/C=N/NC(=O)c2ccc(=O)[nH]n2)c1`: the “activity change, negative = inhibition” value was “inactive”.

As to `CS(=O)(=O)c1nsc2nc(=O)c(/C=C3\C=Nc4ccccc43)c(N)n12`, the “activity change, negative = inhibition” value was “inactive”.

For the compound `CCCC1C2CN(C(C)C)CC=C2C(C#N)=C(N)C1(C#N)C#N` (configuration not stated), the AC50 was 4.99 µM.

For the compound `CCOC(=O)[C@]1(C#N)[C@@H]2C=CC(C(N)=O)=CN2[C@@H](C(N)=O)[C@@H]1c1ccc(F)cc1`, the “activity change, negative = inhibition” value is “inactive”.

Regarding `CC(=O)Nc1ccc(/C=C/c2nc(-c3ccccc3O)n[nH]2)cc1`, the “activity change, negative = inhibition” value is “inactive”.

For the compound `CCOc1cc(/C=C2\CCCc3c2nc2ccccc2c3C(=O)O)ccc1OC`, the concentration at half-maximal activity (AC50) was 0.906 µM.

Regarding `CCn1c(O)c(N=NC(=O)CNC(=O)/C=C/c2ccco2)c2ccccc21`, the “activity change, negative = inhibition” value was “inactive”.

As to `CCCCN(C(=O)c1ccc(C)o1)c1c(N)n(CCCC)c(=O)[nH]c1=O`, the “activity change, negative = inhibition” value is “inactive”.

For the compound `NC(=S)N=Nc1c(O)[nH]c2cc(F)c(F)cc12`, the “activity change, negative = inhibition” value was “inactive”.

As to `CN1CCc2c(sc(NC(=O)C3CCCN3S(=O)(=O)c3ccc(Cl)s3)c2C(N)=O)C1` (configuration not stated), the “activity change, negative = inhibition” value was “inactive”.

As for `CCCCCC(=O)N(Cc1ccccc1)c1c(N)n(CCOC)c(=O)[nH]c1=O`, the “activity change, negative = inhibition” value was “inactive”.

In the case of `O=C(O)c1ccc(/C=C2\SC(=S)N(Nc3ccccc3)C2=O)cc1`, the “activity change, negative = inhibition” value is “inactive”.

Turning to `O=C(Nc1nccs1)c1ccc(-c2ccc(Cl)cc2)o1`, the “activity change, negative = inhibition” value was “inactive”.

With `CC1CN2C(c3ccc(Cl)cc3)=CSC2=N1` (configuration not stated), the “activity change, negative = inhibition” value is “inactive”.

Take `COc1ccc(C(=O)NNC(=O)c2ccc3ccccc3c2O)cc1`: the “activity change, negative = inhibition” value was “inactive”.

For the compound `Cn1c(C2=C(O)CN(c3ccccc3)C2=N)nc2ccccc21`, the “activity change, negative = inhibition” value is “inactive”.

For `O=C(NNc1ccccc1)C(=O)NNS(=O)(=O)c1ccc(CCCl)cc1`, the “activity change, negative = inhibition” value was “inactive”.

As for `COC(=O)C1CSc2[nH]c(=O)sc2C1c1ccc(O)c(OC)c1` (configuration not stated), the “activity change, negative = inhibition” value was “inactive”.

In the case of `c1cncc(C2CC(c3cccs3)n3ncnc3N2)c1` (configuration not stated), the “activity change, negative = inhibition” value was “inactive”.

Regarding `COc1ccc(N=C2S/C(=C\c3ccc(N4CCOCC4)o3)C(=O)N2CCc2c[nH]c3ccccc23)cc1`, the “activity change, negative = inhibition” value is “inactive”.

Turning to `Cc1ccc2c(c1)-c1ccccc1S(=O)(=O)N2`, the “activity change, negative = inhibition” value is “inactive”.

Regarding `O=C(O)c1ccc2cccnc2c1O`, the “activity change, negative = inhibition” value was “inactive”.

As to `CN1CCCc2cc(C=O)ccc21`, the “activity change, negative = inhibition” value is “inactive”.

In the case of `Oc1cccc(NC(=S)N=Nc2c(O)[nH]c3ccccc23)c1`, the “activity change, negative = inhibition” value is “inactive”.

For `Nc1nc(N)c2[nH]cnc2n1`, the “activity change, negative = inhibition” value is “inactive”.

Regarding `COc1cc(/C=N/NC(=S)Nc2cccc(C(=O)O)c2)ccc1O`, the “activity change, negative = inhibition” value was “inactive”.

In the case of `O=C1NC(=O)/C(=C/c2ccc(N3CCOCC3)o2)N1`, the “activity change, negative = inhibition” value is “inactive”.

Turning to `COc1ccc(NC(=O)c2coc(C)c2)cc1`, the “activity change, negative = inhibition” value was “inactive”.

For the compound `C[C@H](O)CC1=C[C@H](O)[C@@H](C)OC1=O`, the “activity change, negative = inhibition” value was “inactive”.

Take `COC(=O)c1ccccc1-c1ccc(C(c2c(C)[nH][nH]c2=O)c2c(C)[nH][nH]c2=O)o1`: the “activity change, negative = inhibition” value was “inactive”.

With `COC(=O)c1ccc2c(c1)SC1=C(CCCC1=O)N2`, the AC50 was 5.95 µM.

In the case of `CC(=O)Nc1ccc(N=NC2C(=O)N(C(N)=S)N=C2C)cc1` (configuration not stated), the “activity change, negative = inhibition” value is “inactive”.

On to `CC(C)(C)N(CC#CCC(O)(c1ccccc1)c1ccccc1)CCO`, for which the “activity change, negative = inhibition” value was “inactive”.

As for `O=C(CCc1ccccc1)N/N=C\c1cc2c(cc1Br)OCO2`, the “activity change, negative = inhibition” value is “inactive”.

Regarding `CCC(=O)Oc1ccc2c(c1)O/C(=C\c1ccco1)C2=O`, the concentration at half-maximal activity (AC50) is 5.51 µM.

`Cc1ccc(S(=O)(=O)c2cc3c(=O)n4ccccc4nc3n(C3CCCCC3)c2=N)cc1`: the AC50 is > 10 µM (inactive).

`Cc1ccc(Nc2nc(-c3ccc(C)cc3)c(CC(=O)O)s2)cc1`: the “activity change, negative = inhibition” value is “inactive”.

With `COc1ccccc1/C=C1\SC(=S)N(CCC(=O)Nc2cc(C)on2)C1=O`, the AC50 was > 10 µM (inactive).

Turning to `CSc1ccccc1N=Cc1nc(-c2ccccc2)oc1O`, the “activity change, negative = inhibition” value was “inactive”.

Regarding `O=c1nc(-c2ccccc2)c2cc(Br)ccc2[nH]1`, the “activity change, negative = inhibition” value was “inactive”.

Turning to `COCCNC(=S)N/N=C/c1c2ccccc2cc2ccccc12`, the “activity change, negative = inhibition” value was “inactive”.

In the case of `O=C(O)CSc1ncnc2nc[nH]c12`, the “activity change, negative = inhibition” value is “inactive”.

Consider `Cc1cc(C(=O)N/N=C/c2ccc(-c3ccc(C)c(Cl)c3)o2)n[nH]1`, for which the “activity change, negative = inhibition” value was “inactive”.

For `Cn1ncc2c(NNC(=O)c3ccccc3Cl)ncnc21`, the “activity change, negative = inhibition” value is “inactive”.

With `CCNC(=S)NNC(=O)c1ccccn1`, the “activity change, negative = inhibition” value is “inactive”.

Regarding `CCOc1nc(-c2ccccc2)c2cc(Br)ccc2n1`, the “activity change, negative = inhibition” value is “inactive”.
